The structures appear in SMILES notation. Counter-ions that a name gives are not always drawn.

The nature of series [1]: Acute toxicity in the mouse after intravenous administration. As to conditions: in vivo, i.v., mice, observed 14 days. As for the experimental part: 5 female and 5 male mice per dose, with body weights between 20 and 26 gm, served as test animals. The animals had access to food and drinking water ad libitum.
Compounds D, E, I and J were dissolved in distilled water, compounds A, B and C in 0.2% tartaric acid, and compound G in 15% propylene glycol.
The injected volume at the dosage level of 50 mgm/kg i.v. amounted to 0.1 ml/10 gm of animal. When the dosage was increased or diminished by 10 mgm/kg i.v., the volume was increased or diminished by […], respectively. Control groups of 10 animals each were only treated with the solvent.
The LD50 -values were determined according to the graphic-statistical method of Litchfield and Wilcoxon [(J. Pharmacol. exp. Therap. 96, 99, (1949)].

Series [2] has as its system hindlimb tonic extensor component of the maximal seizure pattern. The series can be described thus: Anticonvulsive activity in mice (maximal electroshock seizure). Type of series: in vivo. To be noted: Mus musculus, po, p.o. As for the experimental part:
Male mice with body weights between 20 and 26 gm were used as experimental animals. They were allowed free access to food (Altromin®) and water up to one hour before administration of the test compound. Tests were carried out by using the maximal electroshock seizure pattern[Swinyard, Brown and Goodman, J. Pharmacol. exp. Ther. 106, 319 (1952)]. The electroshock apparatus was constructed according to Woodbury and Davenport […]. The electric impulses (50 Hz A.C., 50 mA, 0.2 sec) were delivered via steel ball electrodes covered with buckskin and moistened with 0.9% sodium chloride solution placed on the heads and over the eyes of the mice. The test is a measure of the ability of anticonvulsive drugs to abolish the hindlimb tonic extensor component of the maximal seizure pattern induced by electric stimulation. The test compound was administered either as the free base or as the hydrochloride. The free base was suspended in 1% tylose, and the hydrochloride was dissolved in distilled water. […] Control groups received only the suspension agent or solvent orally. 30, 150 and 300 minutes after administration all animals were shocked.
Background: Protection in the maximal electroshock model is a classic sign of anticonvulsant action.

The test system of series [3] is drinking frequency of thirsty animals. Kind of series: Anxiolytic activity (drinking frequency of thirsty naive rats, electro-shock). Type of series: in vivo. To be noted: 10 mgm/kg orally, one hour before testing; for Shocks/animal, Treated animals: 3-minute session; for Shocks/animal, Difference (treated animals vs controls): ^+ significant difference compared with control group, (A, C, H, I, K), ° difference compared with control group, p >0.1 (B, D, E, F, J), G unmarked. The procedure: In their experiments, the drinking frequency of thirsty animals served as a measure for anxiety-relieving effects. Female rats with body weights between 150 and 170 gm were used as experimental animals. Food was available at all times, whereas they were deprived of water for 48 hours prior to the test session. The test apparatus was an opaque plastic box (24 × 24 × 22 cm), provided with a plexiglass cover and a […] floor. The metal drinking tube of a 250 ml-bottle covered with a hard plastic projected 2 cm from the wall into the box, the tube being attached to one side at a height of 6.5 cm. A piece of 0.2 cm at the tip of the tube was not plastic-covered. An electrical circuit was connected between the tube and the grid floor. Whenever a rat closed the circuit by licking the tube, each lick was counted electronically. At every 20th lick the animal received an electro-shock (40 V, 10 mA A.C.) via the tube ending and the grid. After the first 20 licks a time-counter was switched on, finishing the test after 3 minutes. Within this period the drinking frequency of each animal was recorded as the number of shocks delivered during the 3-minute session. […] The control groups received only the solvent or suspension agent. Statistical comparisons were made, using the Mann-Whitney-U-test (Siegel: Nonparametric Statistics, McGraw-Hill, 1956).

[4] abbreviates: 0.5 h, 30 min. after administration.
Where [5] appears, read: 2.5 h, 150 min. after administration.
Setting [6] is: 5 h, 300 min. after administration.

The term LD50 denotes the dose at which mortality reaches 50%. Read a low LD50 as a more toxic substance. The term ED50 denotes the dose at which the effect has come halfway, by size or by number of responders. Read a low ED50 as an effect at a small dose. Molecule `CCN1CCCC1CNC(=O)c1cc(C)cc(Cl)c1N` (stereo not drawn) [A, N-[1-ethyl-pyrrolidyl-(2)-methyl]-2-amino-3-chloro-5-methyl-benzoic acid amide] gave an LD50 at 336 h in series [1] of 28.6 mg/kg. Further, the ED50 in series [2] (setting [4]) was 28 mg/kg; in series [2] (setting [5]) it was 60 mg/kg; in series [2] (setting [6]), 102 mg/kg. In series [3], the “Shocks/animal, Treated animals” value is on record as 7.1 Shocks/animal. The “Shocks/animal, Difference (treated animals vs controls)” value (“Shocks/animal, Difference” below) in series [3] was determined as 3.6 Shocks/animal.
Take `CCN1CCCC1CNC(=O)c1cc([N+](=O)[O-])cc(Cl)c1N` (stereo not drawn) [B, N-[1-ethyl-pyrrolidyl-(2)-methyl]-2-amino-3-chloro-5-nitro-benzoic acid amide]: the LD50 at 336 h in series [1] came to 39 mg/kg. Besides, the ED50 in series [2] (setting [4]) came to 78 mg/kg; in series [2] (setting [5]) it was 130 mg/kg; in series [2] (setting [6]) it was 178 mg/kg. The “Shocks/animal, Treated animals” value in series [3] was determined as 4.9 Shocks/animal. Further, the “Shocks/animal, Difference” value in series [3] came to 1.2 Shocks/animal.
`CCN1CCCC1CNC(=O)c1cc(F)c(N)c(Cl)c1` (stereo not drawn) [Compound C, N-[1-ethyl-pyrrolidyl-(2)-methyl]-4-amino-3-chloro-5-fluoro-benzoic acid amide] registered an LD50 at 336 h in series [1] of 28.5 mg/kg. Further, the ED50 in series [2] (setting [4]) was 37 mg/kg; in series [2] (setting [5]) it was 50 mg/kg; in series [2] (setting [6]), 128 mg/kg. Moreover, the “Shocks/animal, Treated animals” value in series [3] worked out at 6.7 Shocks/animal. Also, in series [3], the “Shocks/animal, Difference” value worked out at 3.9 Shocks/animal.
In turn, `CCN1CCCC1CNC(=O)c1cc(Cl)cc(Cl)c1N` (stereo not drawn) [D, N-[1-ethyl-pyrrolidyl-(2)-methyl]-2-amino-3,5-dichloro-benzoic acid amide hydrochloride] displayed an LD50 at 336 h in series [1] of 31.5 mg/kg. Also, the results for the ED50 in series [2] (setting [4]), in series [2] (setting [5]) and in series [2] (setting [6]) were 35 mg/kg, 54 mg/kg and 109 mg/kg, respectively. In series [3], the “Shocks/animal, Treated animals” value stood at 6.8 Shocks/animal. For the same molecule, the “Shocks/animal, Difference” value in series [3] is listed as 3.1 Shocks/animal.
Consider `CCN1CCCC1CNC(=O)c1cc(Br)cc(Cl)c1N` (stereo not drawn) [E, N-[1-ethyl-pyrrolidyl-(2)-methyl]-2-amino-5-bromo-3-chloro-benzoic acid amide hydrochloride], for which, in series [1], the LD50 at 336 h is 25 mg/kg. Also, the values for the ED50 in series [2] (setting [4]), in series [2] (setting [5]) and in series [2] (setting [6]) were 44 mg/kg, 68 mg/kg and 109 mg/kg, respectively. Further, the “Shocks/animal, Treated animals” value in series [3] came to 7.5 Shocks/animal. In addition, the “Shocks/animal, Difference” value in series [3] amounted to 4.5 Shocks/animal.
For `Cl.Nc1ccc(C(=O)NC2CCCCC2)c(Cl)c1` [F, 4-amino-2-chloro-N-cyclohexyl-benzoic acid amide hydrochloride], the ED50 is 38 mg/kg in series [2] (setting [4]), 50 mg/kg in series [2] (setting [5]) and 116 mg/kg in series [2] (setting [6]). The “Shocks/animal, Treated animals” value in series [3] came to 5.3 Shocks/animal. Besides, the “Shocks/animal, Difference” value in series [3] was found to be 2.0 Shocks/animal.
Take `Cl.Nc1ccc(C(=O)NCc2ccccc2)c(Cl)c1` [G, 4-amino-N-benzyl-2-chloro-benzoic acid amide hydrochloride]: the LD50 at 336 h in series [1] was 48 mg/kg. The ED50 is 68 mg/kg in series [2] (setting [4]), 133 mg/kg in series [2] (setting [5]) and 200 mg/kg in series [2] (setting [6]). Further, the “Shocks/animal, Treated animals” value in series [3] stood at 7.1 Shocks/animal. Moreover, in series [3], the “Shocks/animal, Difference” value is 3.8 Shocks/animal.
Regarding `CN(C(=O)c1ccc(N)cc1Cl)C1CCCCC1` [H, 4-amino-2-chloro-N-cyclohexyl-N-methyl-benzoic acid amide], the ED50 was 200 mg/kg in series [2] (setting [4]), 155 mg/kg in series [2] (setting [5]) and 200 mg/kg in series [2] (setting [6]). The “Shocks/animal, Treated animals” value in series [3] came out at 7.8 Shocks/animal. Also, in series [3], the “Shocks/animal, Difference” value is 4.6 Shocks/animal.
`CCN1CCCC1CNC(=O)c1cc(Cl)cc(C(F)(F)F)c1N` (stereo not drawn) [I, N-[1-Ethyl-pyrrolidyl-(2)-methyl]-2-amino-5-chloro-3-trifluoromethyl-benzoic acid amide hydrochloride]: the LD50 at 336 h in series [1] was 52.5 mg/kg. Further, the ED50 in series [2] (setting [4]) is 72 mg/kg; in series [2] (setting [5]), 100 mg/kg; in series [2] (setting [6]) it was 124 mg/kg. Further, in series [3], the “Shocks/animal, Treated animals” value is given as 7.5 Shocks/animal. In addition, the “Shocks/animal, Difference” value in series [3] amounted to 4.6 Shocks/animal.
For `CCN1CCCC1CNC(=O)c1cc(Cl)c(N)c(C(F)(F)F)c1` (stereo not drawn) [J, N-[1-ethyl-pyrrolidyl-(2)-methyl]-4-amino-3-chloro-5-trifluoromethyl-benzoic acid amide hydrochloride], the LD50 at 336 h in series [1] was 33.5 mg/kg. Also, the ED50 in series [2] (setting [4]) came to 62 mg/kg; in series [2] (setting [5]), 64 mg/kg; in series [2] (setting [6]), 82 mg/kg. In addition, in series [3], the “Shocks/animal, Treated animals” value is 7.2 Shocks/animal. Besides, the “Shocks/animal, Difference” value in series [3] stood at 3.6 Shocks/animal.
For the molecule `Nc1c(C(=O)NCc2cccnc2)cc(Cl)cc1C(F)(F)F` [K, 2-amino-5-chloro-N-[pyridyl-(3)-methyl]-3-trifluoromethyl-benzoic acid amide], the ED50 in series [2] (setting [4]) was above 200 mg/kg; in series [2] (setting [5]), 70 mg/kg; in series [2] (setting [6]) it was 73 mg/kg. For the same molecule, the “Shocks/animal, Treated animals” value in series [3] is 9.6 Shocks/animal. For the same molecule, in series [3], the “Shocks/animal, Difference” value turned out to be 6.1 Shocks/animal.

The values are drawn from patent US4093734A, “Amino-benzoic acid amides” (Boehringer Ingelheim GmbH, priority 1975, dated 1978).
